Values belong to the molecule of their own block, whether it stands above or below them.
Key:
[1] = cited from earlier work
[2] = thiol pKa; cited from earlier work
[3] = UV-Vis absorption response of probe L to amino acids and Cys
Text: With the addition of Cys (0-100 equiv.), absorption band at 468 nm gradually decreases and a new band appeared at 438 nm with a visible colour change from red to green (FIG. 1B). A hypsochromic shift (˜30 nm) with three well defined isosbestic points are observed at 445 nm, 372 nm and 325 nm. This Cys-induced hypsochromic shift indicates the suppression of ICT process from donor diethylamino unit to acceptor nitroalkene unit.
(§1) 5×10^−3M stock solution of 7-(diethylamino)-3-((E)-4-((E)-2-nitrovinyl)styryl)-2H-chromen-2-one was prepared in CH3CN and the same solution was used for all the studies after appropriate dilution. Unless and otherwise mentioned, 10 mM and pH 7 solution of aq. HEPES buffer was used for all spectroscopic studies. All amino acid solutions of 1.0×10^−1M were prepared in HEPES buffer (pH 7). For spectroscopic measurements, stock solution of the probe was further diluted by using HEPES:CH3CN (9:1) mixture and the effective final concentration was made as 10 μM. All luminescence measurements were done using λext=445 nm with an emission slit width of 2 nm. The fluorescence quantum yield was determined according to literature method using fluorescein (in 0.1M NaOH) as reference (Φf=0.92).

[4] = TLC test strips coated with probe L
Procedure: The same strategy is further extended to detect Cys in blood plasma and the Cys released in an enzymatic reaction as well. […] The same methodology is further extended to detect the enzymatically generated Cys from NAC.
TLC test strips were prepared by coating 5 μM of 7-(diethylamino)-3-((E)-4-((E)-2-nitrovinyl)styryl)-2H-chromen-2-one solution in acetonitrile on silica TLC plates. 5 μl of Cys (1.0×10^−1M) in 10 mM aq.HEPES buffer (pH7) was added on it, dried and the visual as well as fluorescence colour changes were observed after 5 min. The same was repeated for Hcy and GSH as well. To detect Cys in blood plasma, 20 μl of blood plasma was diluted (10 μl plasma+10 μl buffer) was added on probe quoted TLC plate. Same methodology was repeated for enzymatic reaction on TLC plate by using 10 μl of NAC and amino acylase-1 enzyme.

[5] = tested on: whey protein; test: Detection of cysteine in whey protein from raw milk; conditions: L 10 μM, whey 500 μl, NAC 0-500 μl
Text: Suitability of this reagent for specific recognition and estimation of Cys-residues present in natural milk proteins was also explored. For this study whey protein was isolated from milk. Initially some fluorescence was observed, which is due to the presence of free Cys. Then NAC tablets are used to reduce the disulfides present in whey. […] So, this reagent could be used as protein labeling agent to specifically label the Cys present in proteins.
Raw milk was subjected to fermentation and the liquid whey which was settled above after fermentation process was separated by filtration. A varying amount of whey ranging from 500 μl was added to Probe L (7-(diethylamino)-3-((E)-4-((E)-2-nitrovinyl)styryl)-2H-chromen-2-one) (10 μM) in HEPES:ACN at pH 7. Varying concentrations of N-Acetyl Cysteine (0-500 μl) was added to each of the above solution in order to hydrolyse the bound Cysteine present in whey protein (NAC solution was prepared by dissolving NAC tablets in buffer as mentioned in the enzymatic study). Luminescence changes were recorded after 45-50 minutes of incubation at room temperature. The remaining derivatives of probe L may give similar kind of response.

[6] = tested on: amino acylase-1; test: Detection of Cys generated enzymatically from NAC; assay type: biochemical
Text: In another preferred embodiment, the detection of Cys generated in an enzymatic reaction is studied. N-acetyl-cysteine (NAC) is employed as substrate and amino acylase-1 as an enzyme. N-acetyl-cysteine, an acetylated form of Cys, a well known pro-drug used as a cysteine supplement in treatment of glutathione replenishment, acetaminophen over dose, HIV patients etc. NAC supplement releases the Cys inside the cells. […] Amino acylases are a class of enzymes which specifically hydrolyses the N-acetylated amino acids to release the free amino acids. There are many amino acylases known for de-acetylation of acetylated amino acids, among them Amino acylase-1 is well known for its ability to hydrolyse acetylated cysteine.
Cipla made effervescent tablets of N-Acetyl-Cysteine were purchased from commercially available sources. Based on the quantity of NAC present in the tablet, 1.0×10^−1M tablet solution was prepared in 10 mM aq.
HEPES buffer solution (pH7). Enzyme solution was prepared according to the requirement by dissolving 1 mg/ml in 10 mM aq.HEPES buffer solution (pH7). A fixed concentration of NAC (200 equiv.) was added to the 10 μM probe in HEPES:CH3CN (9:1, v/v). Since 1 mg of solid enzyme contains 3301 units of protein and 1 unit can hydrolyse 1 μM of substrate, accordingly enzyme concentration was varied with respect to the substrate concentration.
10 μM of 7-(diethylamino)-3-((E)-4-((E)-2-nitrovinyl)styryl)-2H-chromen-2-one is treated with 200 equiv. of NAC and different concentration of enzyme (0-2000 units) was added and the resulting solution was incubated at 37° C. for the time period ranging from 45 to 50 mins. Initially there is no fluorescence because NAC cannot bind to probe and fluorescence is turned on gradually with time, which indicates the hydrolysis of NAC by Amino acylase-1 to release of Cys. Fluorescence intensity increases with the increase in concentration of enzyme (0 to 2000 units) as more and more amounts of Cys was released from NAC by the enzymatic activity (FIG. 6). […]

[7] = Fluorescence response of probe L to amino acids and Cys in HEPES:CH3CN (9:1), pH 7
Text: In the absence of Cys, probe L is almost non fluorescent (Φf=0.06), upon addition of Cys (0-1000 equiv.), fluorescence intensity is increased remarkably up to 7 fold with an emission band centered at 524 nm (λExt=445 nm) (FIG. 2B). […] The quantum yield of probe after the addition of Cys increases (Φf=0.32) with respect to fluorescein (Φf=0.92). The fluorescence turn on response of the probe upon addition of Cys is due to the formation of 1,4 conjugate addition product, which blocks the PET quenching by nitro olefin and also ICT process from diethylamino to nitro olefin unit. The results were in well agreement with our proposed hypothesis. […] The fluorescence intensities of the probe at 524 nm show a good linear relationship with the concentration of Cys between 0 to 1000 μM. The detection limit of Cys is determined as 23.65 nM (23.65×10^−9) based on S/N=3. (FIG. 8)
Cys being a low pKa protein thiol, at neutral pH, the thiolate/thiol ratio is higher for Cys than for Hcy and GSH, which results in greater reactivity of Cys with the probe. This could be the reason for getting selectivity to Cys over Hcy and GSH at pH 7. Also pH 7, being neutral, much suitable for biological studies.
as §1

[8] = Comparison of Formula (L) with prior art coumarin derivatives
Text: In still yet another embodiment, the present invention provides the comparison study of said coumarin derivatives of Formula (L) with previous prior arts coumarin derivative.

[9] = Time dependent fluorescence response of probe L with biothiols
Procedure: Time dependent fluorescence response of probe L or compound of Formula (L) is carried out with 200 equiv of Cys. […] (FIG. 4).

[10] = HEPES:CH3CN (9:1), pH 7, with respect to fluorescein

Compound: O=C(/C=C/c1ccc2ccccc2n1)c1cc2cc3c4c(c2oc1=O)CCCN4CCC3
- sensitivity or specificity of prior art probe (comparison) [1]: Detect only micromolar range

Compound: CCN(CC)c1ccc2cc(/C=C/[N+](=O)[O-])c(=O)oc2c1
- sensitivity or specificity of prior art probe (comparison) [1]: Not specific to Cys

Compound: N[C@@H](CCC(=O)N[C@@H](CS)C(=O)NCC(=O)O)C(=O)O [GSH, Glutathione]
- pKa [2]: 9.5

Compound: N[C@@H](CCS)C(=O)O [Hcy, Homocysteine]
- pKa [2]: 10.0

- reaction time at room temperature ([6]; room temperature): more than 90 min
- fluorescence quantum yield (Φf) after the addition of Cys [7, 10]: 0.32
- fluorescence quantum yield (Φf) in the absence of Cys [7, 10]: 0.06
Compound: CCN(CC)c1ccc2cc(/C=C/c3ccc(/C=C/[N+](=O)[O-])cc3)c(=O)oc2c1 [L, 7-(diethylamino)-3-((E)-4-((E)-2-nitrovinyl)styryl)-2H-chromen-2-one]
- hypsochromic shift of the absorption band upon addition of Cys ([3]; Cys 0-100 equiv., 468 nm to 438 nm): ~30 nm
- absorption response to amino acids (selectivity) ([3]; L 10 μM, amino acids 100 equiv., pH 7): Only Cys gives an observable change in absorption spectra
- response of probe coated TLC plates to Hcy and GSH [4]: does not give any observable visible as well as fluorescence changes
- colour change of probe coated TLC plates with Cys ([4]; 5 μM L on silica TLC, 365 nm UV lamp): changes from red to yellowish green
- fluorescence with whey and NAC [5]: fluorescence intensity of L gradually increases
- fluorescence after addition of aminoacylase-1 ([6]; L 10 μM, NAC 200 equiv., enzyme 0-2000 units, 37° C.): fluorescent intensity gradually increases
- emission at 520 nm with NAC in absence of aminoacylase-1 ([6]; L 10 μM, NAC 200 equiv., pH 7): no change in emission intensity was observed
- linear range of fluorescence intensity at 524 nm with concentration of Cys [7]: 0 to 1000 µM
- pH dependent selectivity ([7]; Cys, Hcy and GSH with increasing pH): selectivity of probe to Cys at pH 7
- fluorescence intensity increase upon addition of Cys ([7]; L 10 μM, Cys 0-1000 equiv., emission 524 nm, λExt=445 nm): up to 7 fold
- fluorescence response to amino acids (selectivity) ([7]; L 10 μM, amino acids 200 equiv., pH 7): Only Cys gives an enhancement in the fluorescence
- detection limit of Cys ([7]; based on S/N=3, fluorescence at 524 nm): 23.65 nM
- fluorescence response to Hcy and GSH ([7]; identical conditions, pH 7): does not give any significant changes in fluorescence
- sensitivity of Cys detection (comparison) [8]: in nanomolar range.
- time to completion of the reaction with Cys ([9]; 200 equiv of Cys): 25 min
- time dependent fluorescence with Hcy and GSH ([9]; 200 equiv. each): no significant changes in the fluorescence observed
